Reference: ChEMBL document CHEMBL3400049, “Design strategies to address kinetics of drug binding and residence time” (Bioorg Med Chem Lett, 2015)

Assays:
[1] = molecular target: CDK8/Cyclin C (Homo sapiens) (UniProt P49336+P24863); experiment: Binding affinity to CDK8/CycC (unknown origin) assessed as residence time; type: protein-complex assay
[2] = molecular target: Histone-lysine N-methyltransferase EZH2 (Homo sapiens) (UniProt Q15910); experiment: Binding affinity to EZH2 (unknown origin) assessed as residence time
[3] = molecular target: T1, Fatty-acid amide hydrolase 1 (Homo sapiens) (UniProt O00519); experiment: Inhibition of recombinant human FAAH assessed as dissociation half life
T1 sequence (whole entry): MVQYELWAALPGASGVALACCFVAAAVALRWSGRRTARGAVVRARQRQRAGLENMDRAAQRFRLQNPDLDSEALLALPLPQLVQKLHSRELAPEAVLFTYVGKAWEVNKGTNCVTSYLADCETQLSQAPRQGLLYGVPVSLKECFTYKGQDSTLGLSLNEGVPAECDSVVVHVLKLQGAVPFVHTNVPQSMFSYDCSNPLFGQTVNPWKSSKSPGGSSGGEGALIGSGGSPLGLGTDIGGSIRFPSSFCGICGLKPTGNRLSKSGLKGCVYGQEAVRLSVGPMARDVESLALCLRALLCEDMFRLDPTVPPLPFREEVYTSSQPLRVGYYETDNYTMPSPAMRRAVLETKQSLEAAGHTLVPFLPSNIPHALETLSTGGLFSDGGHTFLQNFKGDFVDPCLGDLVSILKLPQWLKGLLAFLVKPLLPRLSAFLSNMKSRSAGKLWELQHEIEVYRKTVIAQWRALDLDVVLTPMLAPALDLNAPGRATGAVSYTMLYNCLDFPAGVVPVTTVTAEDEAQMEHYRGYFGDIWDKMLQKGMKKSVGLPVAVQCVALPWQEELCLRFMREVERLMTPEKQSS

Histone-lysine N-methyltransferase EZH2 (Homo sapiens), sequence (Q15910 whole entry, looked up): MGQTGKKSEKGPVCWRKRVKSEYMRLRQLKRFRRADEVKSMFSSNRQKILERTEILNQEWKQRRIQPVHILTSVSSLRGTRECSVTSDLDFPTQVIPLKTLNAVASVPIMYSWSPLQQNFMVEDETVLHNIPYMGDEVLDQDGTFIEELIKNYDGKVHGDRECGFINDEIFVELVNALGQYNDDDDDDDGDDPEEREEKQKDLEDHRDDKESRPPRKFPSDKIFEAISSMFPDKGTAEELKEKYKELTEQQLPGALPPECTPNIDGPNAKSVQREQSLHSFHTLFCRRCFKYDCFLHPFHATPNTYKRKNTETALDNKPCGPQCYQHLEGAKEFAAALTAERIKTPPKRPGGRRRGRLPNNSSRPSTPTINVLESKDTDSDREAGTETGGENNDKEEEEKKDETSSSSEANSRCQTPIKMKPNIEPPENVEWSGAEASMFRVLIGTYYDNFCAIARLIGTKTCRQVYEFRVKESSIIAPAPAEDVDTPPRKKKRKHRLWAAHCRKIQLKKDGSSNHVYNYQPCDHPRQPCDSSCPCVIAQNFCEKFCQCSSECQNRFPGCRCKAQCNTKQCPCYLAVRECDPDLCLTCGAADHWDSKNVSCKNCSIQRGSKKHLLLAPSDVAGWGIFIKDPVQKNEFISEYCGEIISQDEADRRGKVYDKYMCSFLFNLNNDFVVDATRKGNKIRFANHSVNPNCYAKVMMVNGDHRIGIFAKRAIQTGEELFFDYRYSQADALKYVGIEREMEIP

TIME [1] | TIME [2] | T1/2 [3] | Structure (SMILES)
27.1 h | – | – | Cc1ccc(-n2nc(C(C)(C)C)cc2NC(=O)NCCN2CCN(C(=O)Nc3cc(C(C)(C)C)nn3-c3ccc(C)cc3)CC2)cc1
– | 0.717 h | – | CCCc1cc(C)[nH]c(=O)c1CNC(=O)c1cc(-c2ccnc(N3CCN(C)CC3)c2)cc2c1ccn2C(C)C
– | – | > 10 h | O=C(CCCCCCc1ccccc1)c1nc2ncccc2o1
< 0.0233 h | – | – | Cc1ccc(-n2nc(C(C)(C)C)cc2NC(=O)NCCN2CCOCC2)cc1
– | 1.03 h | – | Cc1ccc(CNC(=O)c2cc(-c3ccnc(N4CCN(C)CC4)c3)cc3c2ccn3C(C)C)c(=O)[nH]1
– | – | > 10 h | O=C(CCCCCCc1ccccc1)c1ncc(-c2ccccn2)o1
